In patent publication US20170087113A1, “METHODS FOR TREATING UREA CYCLE DISORDERS TO PREVENT HYPERAMMONEMIC CRISES BY CONTROLLING BLOOD AMMONIA LEVELS” (HORIZON THERAPEUTICS, LLC, priority 2014, published 2017):

Key:
UCD patients [1] = assay: Occurrence of hyperammonemic crises (HAC): 12 months pre-enrollment on NaPBA versus 12-month GPB treatment (studies HPN-100-005, -007, -012); assay type: in vivo, human
From the text: Data from four short-term switchover (SO) studies and three 12-month safety extension (SE) studies in adult and pediatric UCD patients were included in the analyses; all have been previously described. […] Most patients completing these protocols plus additional patients (a total of 100 of whom 49 were pediatric) were enrolled into safety extension studies and received GPB for 12 months (Diaz 2013), (Mokhatarani 2013), (Berry 2014).
All protocols and informed consents were reviewed and approved by the Investigational Review Board of each participating institution prior to initiation. […] In all studies, patients received GPB three times daily (or more frequently in small children to match their prior NaPBA schedule) at a daily dose equivalent to their previously prescribed NaPBA dose. […] Fasting ammonia and glutamine levels were analyzed as a predictor of HACs during long-term treatment.
(§1) During the 12 month studies, blood samples for ammonia and glutamine analyses were collected monthly and information on HACs was recorded. […] Ammonia and glutamine concentrations were measured by an accredited hospital laboratory at each study site and ammonia values were normalized to a standard range of 9 to 35 μmol/L.
Data for 100 UCD subjects from three clinical trials (HPN-100-005, HPN-100-007, and HPN-100-012) were analyzed to evaluate the correlation between fasting ammonia levels and HAC (Table 1). Patients were treated for 12 months with GPB during the study. There was an almost equal split in the number of subjects who were adults (51%) and children (49%), defined as age<18 years at the time of enrollment. In this population, 30 patients had experienced a total of 54 HACs in the 12 months prior to the study and 19 patients experienced a total of 27 HACs during the study (Table 1). Baseline ammonia was defined as the subject's fasting ammonia level taken either at month zero or at the screening visit depending on which study the subject was enrolled in and whether the subject was enrolled in previous studies.

blood ammonia = assay: Total ammonia exposure (TNAUC of monthly ammonia) during 12-month GPB treatment; assay type: in vivo, human; design: TNAUC ammonia, mean: unit not given beside the values; conditions: for TNAUC ammonia, mean: patients with HAC, N=19; for TNAUC ammonia, mean (SD): patients with no HAC, N=81
Experimental: as §1
The relationship between total ammonia exposure over time and the risk of HAC occurrence was explored by calculating time normalized area under the curve (TNAUC12months) for ammonia for patients with and without an HAC during the 12-month treatment with GPB (Table 13). The AUC for ammonia, measured monthly, was calculated for each patient using the trapezoid rule over the course of the 12 month study. To normalize the AUC, TNAUCxmonth, AUC was divided by the final study month of an ammonia assessment.

UCD patients [2] = assay: Duration of HAC during the 12-month GPB studies; assay type: in vivo, human
Experimental: The relationship between ammonia exposure and duration of HAC was analyzed. Ammonia exposure was characterized three different ways: peak ammonia during crisis, total ammonia during crisis and ammonia at time of admission. The majority of the HACs typically lasted a day, and a steep drop off in the distribution was seen after 2 days. (Note: two subjects were excluded with 20 days of duration of HAC in this analyses).

glutamine = assay: Glutamine levels and exposure during 12-month GPB treatment; assay type: in vivo, human
Experimental: as §1
The relationship between glutamine levels and ammonia categories was also analyzed. […] Glutamine levels were analyzed over the 12 month study period in patients treated for 12 months with GPB. Monthly glutamine levels were generally higher in patients in the higher baseline ammonia ULN groups and, by three months of treatment, had decreased in the patients with the highest baseline glutamine at baseline (FIG. 14A).

venous ammonia = conditions: study HPN-100-006 (Diaz 2013); cited from earlier work
[3] = all patients N=100, pre-study (NaPBA) or during study (GPB)
[4] = study 005, N=17, pre-study (NaPBA) or during study (GPB)
[5] = study 007, N=60, pre-study (NaPBA) or during study (GPB)
[6] = study 012, N=23, pre-study (NaPBA) or during study (GPB)
[7] = subjects ages 6 years or higher, total N=77, pre-study (NaPBA) or study (GPB)

O=C(CCCc1ccccc1)OCC(COC(=O)CCCc1ccccc1)OC(=O)CCCc1ccccc1 [GPB, glycerol phenylbutyrate]
Lower HAC incidence rate during study (GPB) than pre-enrollment (UCD patients [1]; 0.288 versus […]): roughly 50%
Proportion of patients who experienced an HAC (UCD patients [1]; Group 1 study sites (33 patients, >50% with baseline ammonia <0.5 ULN)): 12%
Proportion of patients who experienced an HAC (UCD patients [1]; Group 2 study sites (29 patients)): 21%
Proportion of patients who experienced an HAC (UCD patients [1]; Group 3 study sites (38 patients)): 24%
# HAC (UCD patients [1]; Month 0-3 of GPB treatment): 5
% of Total HAC (UCD patients [1]; Month 0-3 of GPB treatment): (18.5%)
HAC Incidence Rate/month (UCD patients [1]; Month 0-3 of GPB treatment): 0.0170
# HAC (UCD patients [1]; Month 0-6 of GPB treatment): 13
% of Total HAC (UCD patients [1]; Month 0-6 of GPB treatment): (48.1%)
HAC Incidence Rate/month (UCD patients [1]; Month 0-6 of GPB treatment): 0.0224
# HAC (UCD patients [1]; Month 0-9 of GPB treatment): 20
% of Total HAC (UCD patients [1]; Month 0-9 of GPB treatment): (74.1%)
HAC Incidence Rate/month (UCD patients [1]; Month 0-9 of GPB treatment): 0.0234
# HAC (UCD patients [1]; Month 0-12 of GPB treatment): 27
% of Total HAC (UCD patients [1]; Month 0-12 of GPB treatment): (100%)
HAC Incidence Rate/month (UCD patients [1]; Month 0-12 of GPB treatment): 0.0240
Proportion of patients who experienced an HAC during the study (UCD patients [1]; OTC deficiency (n=69)): 18.8%
12-month incidence of HAC (UCD patients [1]; adult (≧18 years)): 0.371
Proportion of patients who experienced an HAC (UCD patients [1]; adult (≧18 years)): 13.7%
Proportion of patients with no HAC (UCD patients [1]; adult ≧18 years, during study): 86.3%
Subjects who had not experienced an HAC (Kaplan-Meier, HAC-free survival) (UCD patients [1]; after about one year of follow-up during treatment with GPB): 80%
Proportion of patients who experienced an HAC (UCD patients [1]; age 6-11 years, during study): 23.5%
Proportion of patients with no HAC (UCD patients [1]; age 6-11 years, during study): 76.5%
Proportion of patients who experienced an HAC (UCD patients [1]; age 12-17 years, during study): 11.1%
Proportion of patients with no HAC (UCD patients [1]; age 12-17 years, during study): 88.9%
Proportion of patients who experienced an HAC (UCD patients [1]; age <6 years, during study): 30.4%
Proportion of patients with no HAC (UCD patients [1]; age <6 years, during study): 69.6%
# of HA events (total no. of HAC) (UCD patients [1]; all patients N=100, 12 months pre-study (NaPBA) or during study (GPB)): 27
N with ≧1 HA events (number of patients with HAC) (UCD patients [1]; [3]): 19
Proportion of patients who experienced an HAC (UCD patients [1]; [3]): 19.0%
Proportion of patients with no HAC (UCD patients [1]; all patients, during study): 81.0%
Proportion of patients with no HAC (UCD patients [1]; baseline ammonia 0-<0.5 ULN, during study): 89.7%
Proportion of patients with no HAC (UCD patients [1]; baseline ammonia 0.5-<1.0 ULN, during study): 85.3%
Proportion of patients with no HAC (UCD patients [1]; baseline ammonia ≧1 ULN, during study): 63.0%
12-month incidence of HAC (UCD patients [1]; female): 0.314
Proportion of patients who experienced an HAC (UCD patients [1]; female): 16.4%
Proportion of patients with no HAC (UCD patients [1]; female, during study): 83.6%
12-month incidence of HAC (UCD patients [1]; male): 0.275
Proportion of patients who experienced an HAC (UCD patients [1]; male): 24.2%
Proportion of patients with no HAC (UCD patients [1]; male, during study): 75.8%
Proportion of patients who experienced an HAC during the study (UCD patients [1]; non-OTC deficiencies): 19.4%
12-month incidence of HAC (UCD patients [1]; non-white): 0.248
Proportion of patients who experienced an HAC (UCD patients [1]; non-white): 21.1%
Proportion of patients with no HAC (UCD patients [1]; non-white, during study): 78.9%
12-month incidence of HAC (UCD patients [1]; pediatric (<18 years)): 0.209
Proportion of patients who experienced an HAC (UCD patients [1]; pediatric (<18 years)): 24.5%
Proportion of patients with no HAC (UCD patients [1]; pediatric <18 years, during study): 75.5%
# of HA events (UCD patients [1]; [4]): 3
N with ≧1 HA events (UCD patients [1]; [4]): 3
# of HA events (UCD patients [1]; [5]): 12
N with ≧1 HA events (UCD patients [1]; [5]): 9
# of HA events (UCD patients [1]; [6]): 12
N with ≧1 HA events (UCD patients [1]; [6]): 7
# of HACs (UCD patients [1]; [7]): 15
Subjects with 1 or more HACs (UCD patients [1]; [7]): 12
12-month incidence of HAC (UCD patients [1]; white): 0.296
Proportion of patients who experienced an HAC (UCD patients [1]; white): 18.5%
Proportion of patients with no HAC (UCD patients [1]; white, during study): 81.5%
TNAUC ammonia, mean (blood ammonia; Month 0-3): 33.3
TNAUC ammonia, mean (SD) (blood ammonia; Month 0-3): 23.5 (13.62)
TNAUC ammonia, mean (blood ammonia; Month 0-6): 33.0
TNAUC ammonia, mean (SD) (blood ammonia; Month 0-6): 24.0 (13.85)
TNAUC ammonia, mean (blood ammonia; Month 0-9): 33.4
TNAUC ammonia, mean (SD) (blood ammonia; Month 0-9): 23.7 (12.56)
TNAUC ammonia, mean (blood ammonia; Month 0-12): 35.0
TNAUC ammonia, mean (SD) (blood ammonia; Month 0-12): 23.6 (11.94)
Duration of HAC that lasted less than 2 days (UCD patients [2]; overall): about 64%
Duration of HA crisis 1-1.99 days (UCD patients [2]; study 005): 0.0%
Duration of HA crisis 2-2.99 days (UCD patients [2]; study 005): 50.0%
Duration of HA crisis <1 days (UCD patients [2]; study 005): 50.0%
Duration of HA crisis >3 days (UCD patients [2]; study 005): 0.0%
Duration of HA crisis, median (UCD patients [2]; study 005): 1.27 days
Duration of HA crisis, mean (UCD patients [2]; study 005, N=2): 1.27 days
Duration of HA crisis 1-1.99 days (UCD patients [2]; study 007): 16.7%
Duration of HA crisis 2-2.99 days (UCD patients [2]; study 007): 33.3%
Duration of HA crisis <1 days (UCD patients [2]; study 007): 41.7%
Duration of HA crisis >3 days (UCD patients [2]; study 007): 8.3%
Duration of HA crisis, median (UCD patients [2]; study 007): 1.36 days
Duration of HA crisis, mean (UCD patients [2]; study 007, N=12): 1.95 days
Duration of HA crisis 1-1.99 days (UCD patients [2]; study 012): 18.2%
Duration of HA crisis 2-2.99 days (UCD patients [2]; study 012): 18.2%
Duration of HA crisis <1 days (UCD patients [2]; study 012): 54.6%
Duration of HA crisis >3 days (UCD patients [2]; study 012): 9.1%
Duration of HA crisis, median (UCD patients [2]; study 012): 0.92 days
Duration of HA crisis, mean (UCD patients [2]; study 012, N=11): 1.53 days
Duration of HA crisis 1-1.99 days (UCD patients [2]; total, N=25): 16.0%
Duration of HA crisis 2-2.99 days (UCD patients [2]; total, N=25): 28.0%
Duration of HA crisis >3 days (UCD patients [2]; total, N=25): 8.0%
Duration of HA crisis, mean (UCD patients [2]; total, N=25): 1.71 days
Duration of HA crisis, median (UCD patients [2]; total, N=25): 1.00 days
Change of glutamine levels during GPB treatment (glutamine; patients with the highest baseline glutamine, by three months of treatment): decreased
Total glutamine exposure, TNAUC12month (glutamine; subjects with an HAC during the study): 720.9 μmol/L*m
Total glutamine exposure, TNAUC12month (glutamine; subjects without an HAC during the study): 699.4 μmol/L*m
Ammonia control of GPB versus NaPBA as assessed by venous ammonia (venous ammonia): non-inferiority
